Measurements: patent US4668663A, “Renin inhibitors containing homophe^8” (Merck & Co., Inc., priority 1984, dated 1987)
pIC50, pKi: −log10 of the molar value. Numbered stars: 1 amine (or outer) side, 2 acyl side, 3 side chain; on linkers, the order of the positions; unused ones are H or OH. Square brackets hold non-standard residues; d marks the D form. Peptide text beside a SMILES is read from it. * marks the point of attachment. ACHPA = O=C(C[C@H](O)[C@H](CC1CCCCC1)N[*:1])[*:2]; Sta = CC(C)C[C@H](N)[C@@H](O)CC(=O)O; hhPhe = N[C@@H](CCCc1ccccc1)C(=O)O; hPhe = N[C@@H](CCc1ccccc1)C(=O)O; Isovaleryl = CC(C)CC(=O)*; Boc = CC(C)(C)OC(=O)*

Legend:
dog plasma renin = molecular target: T1, dog plasma renin (Canis lupus familiaris, UniProt Q6DYE7); experiment: Dog plasma renin assay; format: biochemical; details: read-out: Dog Plasma I50
T1 construct: Further assays measured human plasma renin and dog plasma renin; from tissue; host or cells: dog plasma
T1 sequence (Q6DYE7 66-403): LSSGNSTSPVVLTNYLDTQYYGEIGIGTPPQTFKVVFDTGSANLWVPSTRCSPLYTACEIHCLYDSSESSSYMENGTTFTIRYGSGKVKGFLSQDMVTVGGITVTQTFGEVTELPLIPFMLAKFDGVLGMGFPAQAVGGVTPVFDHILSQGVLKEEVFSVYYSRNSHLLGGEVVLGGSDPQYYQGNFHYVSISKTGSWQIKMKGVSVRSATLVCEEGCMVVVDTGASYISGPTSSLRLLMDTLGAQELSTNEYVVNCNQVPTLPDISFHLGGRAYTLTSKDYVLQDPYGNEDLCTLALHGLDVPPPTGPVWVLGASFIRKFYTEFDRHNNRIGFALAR
Description: (§1) Assays were carried out in order to determine the inhibitory potency of the peptides of the present invention. One assay measured the inhibition of hog kidney renin, and was in accordance with the procedure described in Rich et al., J. Med. Chem. 23: 27, 1980, except that a pH of 7.3 was used. Another assay measured the inhibition of human kidney renin purified as described in Bangham, D. R., Robertson, I., Robinson, J. I. S., Robinson, C. J., and Tree, M., Clinical Science and Molecular Medicine, 48 (Supp. 2): 136s-159s (1975), and further purified by affinity chromatography on pepstatin-aminohexyl-Sepharase as described in Poe, M., Wu., J. K., Florance, J. R., Radkey, J. A., Bennett, C. D., and Hoogsteen, K., J. Biol. Chem. 258: 2209-2216 (1983). The assay was also in accordance with Poe et al. cited above. Further assays measured human plasma renin and dog plasma renin in accordance with procedures described in Boger et al, Nature, 303: 81-84 (1983).

human kidney renin = molecular target: T2, human kidney renin (Homo sapiens, UniProt P00797); experiment: Inhibition of purified human kidney renin; format: biochemical; details: dissociation constant of the inhibited enzyme-inhibitor complex
T2 construct: human kidney renin purified as described in Bangham; from tissue; host or cells: human kidney
T2 sequence (P00797 67-406): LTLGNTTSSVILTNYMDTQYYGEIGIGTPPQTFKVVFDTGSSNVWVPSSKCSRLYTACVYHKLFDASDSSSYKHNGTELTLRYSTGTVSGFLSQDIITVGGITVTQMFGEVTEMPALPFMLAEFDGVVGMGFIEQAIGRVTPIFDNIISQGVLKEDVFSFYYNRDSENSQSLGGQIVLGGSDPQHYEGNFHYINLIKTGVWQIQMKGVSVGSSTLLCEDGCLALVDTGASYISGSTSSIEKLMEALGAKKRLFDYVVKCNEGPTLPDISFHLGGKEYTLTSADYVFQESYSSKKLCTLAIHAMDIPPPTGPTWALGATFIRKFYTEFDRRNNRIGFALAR
Description: as §1
Results expressed as KI values refer to the dissociation constant of the inhibited enzyme-inhibitor complex. This KI value was obtained as described above. Pepstatin was used as an active control.

human plasma renin = molecular target: T3, human plasma renin (Homo sapiens, UniProt P00797); experiment: Human plasma renin assay; format: biochemical; details: read-out: Human Plasma I50
T3 construct: Further assays measured human plasma renin and dog plasma renin; from tissue; host or cells: human plasma
T3 sequence (P00797 67-406): T2 sequence (P00797 67-406)
Description: as §1

hog renin = details: after the injection of hog renin into nephrectomized rats (Gross et al.); cited from earlier work

Molecule | pIC50 (dog plasma renin) | pKi (human kidney renin) | pIC50 (human plasma renin) | blood pressure in vivo (hog renin)
CC(C)C[C@H](NC(=O)C[C@H](O)[C@H](CC1CCCCC1)NC(=O)[C@H](Cc1c[nH]cn1)NC(=O)[C@H](CCc1ccccc1)NC(=O)OC(C)(C)C)C(N)=O [BOC--HomoPhe--His--ACHPA--Leu--NH2, BocHPhe--His--ACHPA--Leu--NH2] | 7.00 | 8.93 | 8.41 | –
COC(=O)[C@H](CC(C)C)NC(=O)C[C@H](O)[C@H](CC1CCCCC1)NC(=O)[C@H](Cc1c[nH]cn1)NC(=O)[C@H](CCc1ccccc1)NC(=O)OC(C)(C)C [BOC--HomoPhe--His--ACHPA--Leu--OCH3, BocHPhe--His--ACHPA--Leu--OCH3] | – | 9.01 | – | –
COC(=O)[C@H](Cc1ccccc1)NC(=O)[C@H](CC(C)C)NC(=O)C[C@H](O)[C@H](CC1CCCCC1)NC(=O)[C@H](Cc1c[nH]cn1)NC(=O)[C@H](CCc1ccccc1)NC(=O)OC(C)(C)C [BOC--HomoPhe--His--ACHPA--Leu--Phe--OCH3, BocHPhe--His--ACHPA--Leu--Phe--OCH3] (Boc-[hPhe]H[ACHPA]LF-OMe) | 7.80 | 9.41 | 8.40 | –
CC(C)CC(=O)N[C@@H](Cc1c[nH]cn1)C(=O)N1CCC[C@H]1C(=O)N[C@@H](CCCc1ccccc1)C(=O)N[C@@H](Cc1c[nH]cn1)C(=O)N[C@@H](CC(C)C)[C@@H](O)CC(=O)N[C@@H](CC(C)C)C(=O)N[C@@H](Cc1ccccc1)C(N)=O [N^α -Isovaleryl-L-Histidyl-L-Prolyl-L-Bishomophenylalanyl-L-Histidyl-(3S,4S)-Statyl-L-Leucyl-L-Phenylalanyl Amide] (Isovaleryl-HP[hhPhe]H[Sta]LF-NH2) | 6.49 | 7.05 | – | –
CC(C)CC(=O)N[C@@H](Cc1c[nH]cn1)C(=O)N1CCC[C@H]1C(=O)N[C@@H](CCc1ccccc1)C(=O)N[C@@H](Cc1c[nH]cn1)C(=O)N[C@@H](CC(C)C)[C@@H](O)CC(=O)N[C@@H](CC(C)C)C(=O)N[C@@H](Cc1ccccc1)C(N)=O [N^α -Isovaleryl-L-Histidyl-L-Prolyl-L-Homophenylalanyl-L-Histidyl-(3S,4S)-Statyl-L-Leucyl-L-Phenylalanyl Amide] (Isovaleryl-HP[hPhe]H[Sta]LF-NH2) | 8.35 | 9.48 | 9.85 | –
pepstatin | – | – | – | reduce blood pressure
